According to patent US20110046066A1, “INHIBITORS OF IAP” (GENENTECH, INC., priority 2008, published 2011):
“And” between values parts separate entries of the source, which are not always exact repeats. Equal values may be shown once.

Key:
C-IAP2 BIR3 = molecular target: T1, C-IAP2 BIR3 (Homo sapiens, UniProt Q13489); assay: Fluorescence polarization peptide binding assay, C-IAP2 BIR3; conditions: for IC50: 0.4 μM C-IAP-2 BIR3, 5 nM AVP-diPhe-FAM probe, one hour incubation; for Ki: determined from the IC50 values (procedure of Keating et al.)
T1 construct: 0.4 μM C-IAP-2 BIR3
Method: (§1) Polarization experiments were performed on an Analyst HT 96-384 reader (Molecular Devices Corp.) in order to determine dissociation constants (Kd) between IAP protein BIR domains and the fluorescent probe. Samples for fluorescence polarization affinity experiments were prepared by addition of serial dilutions of IAP BIR domains (C-IAP1 BIR3, C-IAP-2 BIR3, ML/X-IAP chimera MLXBIR3SG and X-IAP BIR3) in polarization buffer (50 mM Tris [pH 7.2], 120 mM NaCl, 1% bovine globulins 5 mM DTT and 0.05% octylglucoside) to 5-carboxyflourescein-conjugated AVPdi-Phe-NH2 (AVP-diPhe-FAM) at 5 nM final concentration.
(§2) The reactions were read after an incubation time of 1 hour at room temperature with standard cut-off filters for the fluorescein fluorophore (λex=485 nm; λem=530 nm) in 384-well black plates (Molecular Devices Corp.). Fluorescence polarization values were plotted as a function of the protein concentration, and the effective concentration 50 (EC50) values were obtained by fitting the data to a 4-parameter equation using Kaleidagraph software (Synergy software, Reading, Pa.). The apparent Kd values were determined from the EC50 values. Inhibition Constants (Ki values) for the antagonists were determined by the addition of 0.06 μM MLXBIR3SG, 0.5 μM X-IAP BIR3, 0.2 μM C-IAP1 BIR3 or 0.4 μM C-IAP-2 BIR3 to wells containing 5 nM of the AVP-diPhe-FAM probe as well as 1:3 serial dilutions of antagonist compounds starting at a concentration of 200 μM in the polarization buffer. Samples were read after an incubation time of one hour. Fluorescence polarization values were plotted as a function of the antagonist concentration, and the IC50 values were obtained by fitting the data to a 4-parameter equation using Kaleidagraph software (Synergy software, Reading, Pa.). Ki values for the antagonists were determined from the IC50 values according to the procedure of Keating, S. M., Marsters, J, Beresini, M., Ladner, C., Zioncheck, K., Clark, K., Arellano, F., and Bodary, S. (2000) in Proceedings of SPIE: In Vitro Diagnostic Instrumentation (Cohn, G. E., Ed.) pp 128-137, Bellingham, Wash. […] All values are micromolar.

[1] = molecular target: T2, ML/X-IAP chimera MLXBIR3SG (Homo sapiens, UniProt Q96CA5, S150G); assay: Fluorescence polarization peptide binding assay, MLXBIR3SG; conditions: for IC50: 0.06 μM MLXBIR3SG, 5 nM AVP-diPhe-FAM probe, one hour incubation; for Ki: determined from the IC50 values (procedure of Keating et al.)
T2 sequence (Q96CA5 with tags, fused parts or gaps S150G): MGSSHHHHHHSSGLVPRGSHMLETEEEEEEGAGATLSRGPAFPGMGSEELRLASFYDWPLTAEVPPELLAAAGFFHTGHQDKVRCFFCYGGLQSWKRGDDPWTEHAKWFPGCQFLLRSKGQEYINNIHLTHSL
Method: The following fluorescence polarization experiments used a chimeric BIR domain referred to as MLXBIR3SG in which 11 of 110 residues correspond to those found in XIAP BIR3, while the remainder correspond to ML-IAP BIR. […] The improved caspase-9 inhibition of the chimeric BIR domain MLXBIR3SG has been correlated with increased inhibition of doxorubicin-induced apoptosis when transfected into MCF7 cells.
as §1, §2

X-IAP BIR3 = molecular target: T3, X-IAP BIR3 (Homo sapiens, UniProt P98170); assay: Fluorescence polarization peptide binding assay, X-IAP BIR3; conditions: for IC50: 0.5 μM X-IAP BIR3, 5 nM AVP-diPhe-FAM probe, one hour incubation; for Ki: determined from the IC50 values (procedure of Keating et al.)
T3 construct: 0.5 μM X-IAP BIR3
Method: as §1, §2

C-IAP1 BIR3 = molecular target: T4, C-IAP1 BIR3 (Homo sapiens, UniProt Q13490); assay: Fluorescence polarization peptide binding assay, C-IAP1 BIR3; conditions: for IC50: 0.2 μM C-IAP1 BIR3, 5 nM AVP-diPhe-FAM probe, one hour incubation; for Ki: determined from the IC50 values (procedure of Keating et al.)
T4 construct: 0.2 μM C-IAP1 BIR3
Method: as §1, §2

T1 sequence (Q13489 238-349 limits assumed): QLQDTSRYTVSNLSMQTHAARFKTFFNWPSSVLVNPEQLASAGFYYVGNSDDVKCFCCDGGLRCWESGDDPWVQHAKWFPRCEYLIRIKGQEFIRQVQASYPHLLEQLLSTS
T4 sequence (Q13490 253-363 limits assumed): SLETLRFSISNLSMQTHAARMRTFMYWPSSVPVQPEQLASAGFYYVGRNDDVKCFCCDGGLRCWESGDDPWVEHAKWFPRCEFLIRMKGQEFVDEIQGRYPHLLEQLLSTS
T3 sequence (P98170 241-356 limits assumed): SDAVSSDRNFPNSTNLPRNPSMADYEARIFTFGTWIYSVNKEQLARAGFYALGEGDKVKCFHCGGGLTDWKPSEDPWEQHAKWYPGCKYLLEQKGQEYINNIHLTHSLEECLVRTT

Row | SMILES | IC50 (C-IAP2 BIR3) | Ki (C-IAP2 BIR3) | IC50 [1] | Ki [1] | IC50 (X-IAP BIR3) | Ki (X-IAP BIR3) | IC50 (C-IAP1 BIR3) | Ki (C-IAP1 BIR3)
1 | CN[C@@H](C)C(=O)N[C@H](C(=O)N[C@H](C(=O)Nc1snnc1-c1ccccc1)C(C)(C)C)C1CCCCC1 [Compound 1] | 468 nM and 225 nM | 101 nM and 49 nM | 189 nM and 181 nM | 43 nM and 41 nM | 9940 nM and 14800 nM | 1770 nM and 2630 nM | 283 nM and 165 nM | 44 nM and 26 nM
2 | CN[C@@H](C)C(=O)N[C@H](C(=O)N[C@H](C(=O)Nc1snnc1-c1ccccc1)C(C)(C)OC)C1CCCCC1 [Compound 2] | 256 nM | 55 nM | 279 nM | 64 nM | 11100 nM | 1980 nM | 192 nM | 30 nM
3 | CN[C@@H](C)C(=O)N[C@H](C(=O)N[C@H](C(=O)Nc1snnc1-c1ccccc1)C1(C)CCOCC1)C1CCCCC1 [Compound 3] | 272 nM | 59 nM | 178 nM | 41 nM | 11200 nM | 1990 nM | 245 nM | 38 nM
4 | CN[C@@H](C)C(=O)N[C@H](C(=O)N[C@H](C(=O)Nc1snnc1-c1ccccc1)C(F)(F)F)C1CCCCC1 [Compound 5] | 3480 nM | 751 nM | 4820 nM | 1100 nM | 13500 nM | 2410 nM | 2120 nM | 328 nM
5 | CN[C@@H](C)C(=O)N[C@H](C(=O)N[C@H](C(=O)Nc1snnc1-c1ccccc1)C(C)(C)F)C1CCCCC1 [Compound 6] | 222 nM | 48 nM | 248 nM | 57 nM | 8840 nM | 1570 nM | 131 nM | 20 nM
6 | CN[C@@H](C)C(=O)N[C@H](C(=O)N(C)[C@H](C(=O)Nc1ccccc1-c1ncccn1)C(C)C)C1CCCCC1 [Compound 7] | 27000 nM | 4570 nM | > 200000 nM | > 46000 nM | > 200000 nM | > 35000 nM | 14200 nM | 3120 nM
7 | CN[C@@H](C)C(=O)N[C@H](C(=O)N[C@H](C(=O)NCC(c1ccccc1)c1ccccc1)C(F)(F)F)C1CCCCC1 [Compound 8] | 1940 nM | 419 nM | 899 nM | 205 nM | > 200000 nM | > 35000 nM | 3120 nM | 483 nM
8 | CN[C@@H](C)C(=O)N[C@H](C(=O)N[C@H](C(=O)NCC(c1ccccc1)c1ccccc1)C(C)(C)OC)C1CCOCC1 [Compound 9] |  |  |  |  | > 200000 nM | > 35000 nM | 5840 nM and 3180 nM | 905 nM and 492 nM
9 | CN[C@@H](C)C(=O)N[C@H](C(=O)N[C@H](C(=O)Nc1snnc1-c1ccccc1)C(C)(C)S(C)(=O)=O)C1CCCCC1 [Compound 10] | 1130 nM | 244 nM | 2400 nM | 547 nM | 36200 nM | 6440 nM | 700 nM | 108 nM
10 | CN[C@@H](C)C(=O)N[C@H](C(=O)N[C@H](C(=O)Nc1sc(-c2cnccn2)nc1-c1ccccc1)C(C)(C)C)c1ccccc1 [Compound 11] | 34500 nM | 7440 nM | ~60000 nM | 13700 nM | > 200000 nM | > 35000 nM | 13500 nM | 2090 nM
11 | CN[C@@H](C)C(=O)N[C@H](C(=O)N[C@H](C(=O)NCC(c1ccccc1)c1ccccc1)C(C)(C)O)C(C)C [Compound 12] | 19100 nM | 4130 nM | 2540 nM | 579 nM | > 200000 nM | > 35000 nM | 6880 nM | 1060 nM
12 | CN[C@@H](C)C(=O)N[C@H](C(=O)N[C@H](C(=O)NCC(c1ccccc1)c1ccccc1)C(C)(C)SC)C1CCCCC1 [Compound 13] | 6250 nM | 1350 nM | 4220 nM | 963 nM | > 200000 nM | > 35000 nM | 3890 nM | 602 nM
13 | CN[C@@H](C)C(=O)N[C@H](C(=O)N(C)[C@H](C(=O)Nc1snnc1-c1ccccc1)C(C)C)C1CCCCC1 [Compound 14] | 226 nM | 48.8 nM | 250 nM | 57 nM | 26400 nM | 4700 nM | 140 nM | 21.7 nM
14 | CN[C@H](C)C(=O)N[C@@H](C(=O)N[C@@H](C(=O)NCC(c1ccccc1)c1ccccc1)C(C)(C)C)C1CCCCC1 [Compound 15] | 7570 nM | 1630 nM | 2900 nM | 661 nM | > 200000 nM | > 35000 nM | 3640 nM | 564 nM
15 | CN[C@@H](C)C(=O)N[C@H](C(=O)N[C@H](C(=O)Nc1cc(C)nn1-c1ccccc1)C(C)(C)SCc1ccc(OC)cc1)C1CCCCC1 [Compound 16] | 1320 nM | 286 nM | 4540 nM | 1030 nM | > 200000 nM | > 35000 nM | 738 nM | 114 nM
16 | CN[C@@H](C)C(=O)N[C@H](C(=O)N[C@H](C(=O)NCC(c1ccccc1)c1ccccc1)C(C)(C)SCc1ccc(OC)cc1)C1CCCCC1 [Compound 17] | 6530 nM | 1410 nM | 5160 nM | 1180 nM | > 200000 nM | > 35000 nM | 6410 nM | 993 nM
17 | CN[C@@H](C)C(=O)N[C@H](C(=O)N[C@H](C(=O)NCC(c1ccccc1)c1ccccc1)C(C)(C)SCNC(C)=O)C1CCCCC1 [Compound 18] | 4340 nM | 937 nM | 2480 nM | 564 nM | > 200000 nM | > 35000 nM | 2550 nM | 395 nM
18 | CN[C@@H](C)C(=O)N[C@H](C(=O)N[C@H](C(=O)Nc1snnc1-c1ccccc1)C(C)(C)SCc1ccc(OC)cc1)C1CCCCC1 [Compound 19] | 341 nM | 74 nM | 543 nM | 124 nM | ~100000 nM | 17800 nM | 289 nM | 45 nM
19 | CN[C@@H](C)C(=O)N[C@H](C(=O)N[C@H](C(=O)Nc1snnc1-c1ccccc1)C(C)(C)SC)C1CCCCC1 [Compound 20, (R)-2-((S)-2-cyclohexyl-2-((S)-2-(methylamino)propanamido)-acetamido)-3-methyl-3-(methylthio)-N-(4-phenyl-1,2,3-thiadiazol-5-yl)butanamide] | 202 nM | 44 nM | 249 nM | 57 nM | 21700 nM | 3870 nM | 133 nM | 21 nM
20 | CN[C@@H](C)C(=O)N[C@H](C(=O)N[C@H](C(=O)Nc1snnc1-c1ccccc1)C(C)(C)SCNC(C)=O)C1CCCCC1 [Compound 21] | 342 nM | 74 nM | 407 nM | 93 nM | 22400 nM | 3990 nM | 202 nM | 31 nM
21 | CN[C@@H](C)C(=O)N[C@H](C(=O)N[C@H](c1nc(-c2ccc(F)c3ccccc23)cs1)C(C)(C)SCc1ccc(OC)cc1)C1CCCCC1 [Compound 22] | 2450 nM | 530 nM | 8880 nM | 2020 nM | > 200000 nM | > 35000 nM | 2290 nM | 354 nM
